Reference: patent US20230026259A1, “CA2 COMPOSITIONS AND METHODS FOR TUNABLE REGULATION” (Obsidian Therapeutics, Inc., priority 2019, published 2023)

Legend:
Format in all cases: cell-based
NIH3T3 cells [1] = experiment: Destabilization mutant screening of human CA2 linked to GFP, ligand response by FACS (Valdecoxib, Celecoxib, Acetazolamide)
NIH3T3 cells [2] = experiment: as above; conditions: for stabilization with varying doses of Valdecoxib or Celecoxib: NIH3T3 cells, FACS
Experimental: To identify destabilizing mutations of human CA2 that are stabilized upon ligand binding to CA2, two rounds of mutant screening were performed, using a lentivirus CA2 mutant library provided by Genscript (China). These methods were used to generate a library of mutant polypeptides using mutagenesis primers and error prone PCR. Lentiviral vectors expressing the template, wild-type human CA2 operably linked to GFP(OT-001986) was also provided by Genscript along with the CA2 mutant library. The library was packaged into lentivirus, transduced into NIH3T3 cells at a multiplicity of infection (MOI) of approximately 0.3 and select stable cell pools were derived by selecting with selection marker puromycin.
To identify cell pools containing destabilizing mutants of CA2 that are stabilizing when CA2 is bound to its corresponding ligand, cells were sorted using FACS. In the initial round, the bottom 15% of population that was GFP negative in the absence of ligand was selected. Cells were expanded and then treated with 10 μM Celecoxib for 24 hours and harvested for cell sorting. The top 11% GFP positive cells which were also responsive to ligand treatment compared to untreated were collected. Celecoxib was removed from the cultures and replaced with DMSO. […] Genomic DNA was isolated and amplified CA2 mutants were reintroduced to the lentiviral vectors where CA2 was operably linked to GFP. The constructs were transduced into NIH3T3 cells with lentivirus vectors for each clone. The cells were treated with 10 μM Valdecoxib or 10 μM Celecoxib for 24 hours and analyzed by FACS. […] In Table 25, the Construct ID (OT-XXXXXX) refers to the construct which includes the referenced CA2 mutant and the Library ID (LibCXXXXXX) refers to the CA2 mutant itself.
The response of NIH3T3 cells to varying doses of Valdecoxib or Celecoxib for 24 hours was measured and analyzed by FACS.
Clones treated with different ligands were compared to examine the behavior of each mutant with the ligands.

NIH3T3 cells [3] = experiment: Immunoblotting of cell lysates for GFP after ligand treatment; conditions: 24 hours; for GFP protein expression by immunoblot, Celecoxib or Valdecoxib: NIH3T3 cells, 1, 3, 10 or 30 μM Celecoxib or Valdecoxib
Experimental: The protein expression in the presence of ligand was measured by immunoblotting the cell lysates for GFP.
The protein expression in the presence of ligand was measured by immunoblotting cell lysates for GFP.

[4] = NIH3T3, Acetazolamide 0.03 μM vs DMSO
[5] = NIH3T3, DMSO (reference), Acetazolamide experiment
[6] = NIH3T3, 10 μM Celecoxib vs DMSO
[7] = NIH3T3, 10 μM Valdecoxib vs DMSO
[8] = NIH3T3, Acetazolamide 0.03 μM, 24 hours
[9] = NIH3T3, Acetazolamide 0.1 μM vs DMSO
[10] = NIH3T3, Acetazolamide 0.1 μM, 24 hours
[11] = NIH3T3, Acetazolamide 0.3 μM vs DMSO
[12] = NIH3T3, Acetazolamide 0.3 μM, 24 hours
[13] = NIH3T3, Acetazolamide 1 μM vs DMSO
[14] = NIH3T3, Acetazolamide 1 μM, 24 hours
[15] = NIH3T3, Acetazolamide 3 μM vs DMSO
[16] = NIH3T3, Acetazolamide 3 μM, 24 hours
[17] = NIH3T3, Acetazolamide 10 μM vs DMSO
[18] = NIH3T3, Acetazolamide 10 μM, 24 hours
[19] = NIH3T3, Acetazolamide 30 μM vs DMSO
[20] = NIH3T3, Acetazolamide 30 μM, 24 hours
[21] = NIH3T3, Celecoxib 0 μM, 24 hours
[22] = NIH3T3, Celecoxib 0.03 μM, 24 hours
[23] = NIH3T3, Celecoxib 0.1 μM, 24 hours
[24] = NIH3T3, Celecoxib 0.3 μM, 24 hours
[25] = NIH3T3, Celecoxib 1 μM, 24 hours
[26] = NIH3T3, Celecoxib 3 μM, 24 hours
[27] = NIH3T3, Celecoxib 10 μM, 24 hours
[28] = NIH3T3, Celecoxib 30 μM, 24 hours
[29] = NIH3T3, DMSO, 24 hours (Acetazolamide experiment)
[30] = NIH3T3, Valdecoxib 0 μM, 24 hours
[31] = NIH3T3, Valdecoxib 0.03 μM, 24 hours
[32] = NIH3T3, Valdecoxib 0.1 μM, 24 hours
[33] = NIH3T3, Valdecoxib 0.3 μM, 24 hours
[34] = NIH3T3, Valdecoxib 1 μM, 24 hours
[35] = NIH3T3, Valdecoxib 3 μM, 24 hours
[36] = NIH3T3, Valdecoxib 10 μM, 24 hours
[37] = NIH3T3, Valdecoxib 30 μM, 24 hours

CA2 (aa 2-260 of WT, L197P) [LibC000186]
Fold change (NIH3T3 cells [1]; [4]): 1.19 | Fold change (NIH3T3 cells [1]; [5]): 1 | Median PE (NIH3T3 cells [2]; NIH3T3, 10 μM Celecoxib): 8156 | SR (stabilization ratio) (NIH3T3 cells [2]; [6]): 10 | Median PE (NIH3T3 cells [2]; NIH3T3, 10 μM Valdecoxib): 6570 | SR (stabilization ratio) (NIH3T3 cells [2]; [7]): 8.05 | Median FITC / Median PE (NIH3T3 cells [2]; [8]): 872 | Fold change (NIH3T3 cells [2]; [9]): 1.18 | Median FITC / Median PE (NIH3T3 cells [2]; [10]): 867 | Fold change (NIH3T3 cells [2]; [11]): 1.23 | Median FITC / Median PE (NIH3T3 cells [2]; [12]): 903 | Fold change (NIH3T3 cells [2]; [13]): 1.28 | Median FITC / Median PE (NIH3T3 cells [2]; [14]): 936 | Fold change (NIH3T3 cells [2]; [15]): 1.28 | Median FITC / Median PE (NIH3T3 cells [2]; [16]): 943 | MFI, comparative analysis (NIH3T3 cells [2]; NIH3T3, Acetazolamide 10 μM): 1189 | Fold change (NIH3T3 cells [2]; [17]): 1.62 | Median FITC / Median PE (NIH3T3 cells [2]; [18]): 1189 | MFI, comparative analysis (NIH3T3 cells [2]; NIH3T3, Acetazolamide 30 μM): 1827 | Fold change (NIH3T3 cells [2]; [19]): 2.49 | Median FITC / Median PE (NIH3T3 cells [2]; [20]): 1827 | Med (median fluorescence intensity) (NIH3T3 cells [2]; [21]): 934 | SR (stabilization ratio) (NIH3T3 cells [2]; [21]): 1 | Med (median fluorescence intensity) (NIH3T3 cells [2]; [22]): 1177 | SR (stabilization ratio) (NIH3T3 cells [2]; [22]): 1.26 | Med (median fluorescence intensity) (NIH3T3 cells [2]; [23]): 1290 | SR (stabilization ratio) (NIH3T3 cells [2]; [23]): 1.38 | Med (median fluorescence intensity) (NIH3T3 cells [2]; [24]): 1470 | SR (stabilization ratio) (NIH3T3 cells [2]; [24]): 1.57 | Med (median fluorescence intensity) (NIH3T3 cells [2]; [25]): 2065 | SR (stabilization ratio) (NIH3T3 cells [2]; [25]): 2.21 | Med (median fluorescence intensity) (NIH3T3 cells [2]; [26]): 4171 | SR (stabilization ratio) (NIH3T3 cells [2]; [26]): 4.47 | Med (median fluorescence intensity) (NIH3T3 cells [2]; [27]): 8202 | SR (stabilization ratio) (NIH3T3 cells [2]; [27]): 8.78 | Med (median fluorescence intensity) (NIH3T3 cells [2]; [28]): 10200 | SR (stabilization ratio) (NIH3T3 cells [2]; [28]): 10.92 | MFI, comparative analysis, normalized to parental day 1 (NIH3T3 cells [2]; NIH3T3, Celecoxib μM (concentration not given)): 7312.627 | MFI, comparative analysis (NIH3T3 cells [2]; NIH3T3, DMSO): 734 | Median PE (NIH3T3 cells [2]; NIH3T3, DMSO): 816 | SR (stabilization ratio) (NIH3T3 cells [2]; NIH3T3, DMSO (reference)): 1 | Median FITC / Median PE (NIH3T3 cells [2]; [29]): 734 | Med (median fluorescence intensity) (NIH3T3 cells [2]; [30]): 934 | SR (stabilization ratio) (NIH3T3 cells [2]; [30]): 1 | Med (median fluorescence intensity) (NIH3T3 cells [2]; [31]): 1223 | SR (stabilization ratio) (NIH3T3 cells [2]; [31]): 1.31 | Med (median fluorescence intensity) (NIH3T3 cells [2]; [32]): 1217 | SR (stabilization ratio) (NIH3T3 cells [2]; [32]): 1.3 | Med (median fluorescence intensity) (NIH3T3 cells [2]; [33]): 1363 | SR (stabilization ratio) (NIH3T3 cells [2]; [33]): 1.46 | Med (median fluorescence intensity) (NIH3T3 cells [2]; [34]): 1711 | SR (stabilization ratio) (NIH3T3 cells [2]; [34]): 1.83 | Med (median fluorescence intensity) (NIH3T3 cells [2]; [35]): 3357 | SR (stabilization ratio) (NIH3T3 cells [2]; [35]): 3.59 | Med (median fluorescence intensity) (NIH3T3 cells [2]; [36]): 7890 | SR (stabilization ratio) (NIH3T3 cells [2]; [36]): 8.45 | Med (median fluorescence intensity) (NIH3T3 cells [2]; [37]): 11800 | SR (stabilization ratio) (NIH3T3 cells [2]; [37]): 12.63 | MFI, comparative analysis, normalized to parental day 1 (NIH3T3 cells [2]; NIH3T3, Valdecoxib μM (concentration not given)): 7034.458 | stabilization with varying doses of Valdecoxib or Celecoxib (NIH3T3 cells [2]; 24 hours): dose dependent stabilization | GFP protein expression by immunoblot, Acetazolamide (NIH3T3 cells [3]; NIH3T3 cells, 0.3, 1, 3, 10 or 30 μM Acetazolamide): stabilization of GFP with increasing ligand doses | GFP protein expression by immunoblot, Celecoxib or Valdecoxib (NIH3T3 cells [3]): stabilization of GFP with increasing ligand doses

CA2 (aa 2-260 of WT, R27L, T87I, H122Y, N252D) [LibC000226]
Fold change (NIH3T3 cells [1]; [4]): 1.31 | Fold change (NIH3T3 cells [1]; [5]): 1 | Median PE (NIH3T3 cells [2]; NIH3T3, 10 μM Celecoxib): 3816 | SR (stabilization ratio) (NIH3T3 cells [2]; [6]): 8.65 | Median PE (NIH3T3 cells [2]; NIH3T3, 10 μM Valdecoxib): 3588 | SR (stabilization ratio) (NIH3T3 cells [2]; [7]): 7.93 | Median FITC / Median PE (NIH3T3 cells [2]; [8]): 499 | Fold change (NIH3T3 cells [2]; [9]): 1.85 | Median FITC / Median PE (NIH3T3 cells [2]; [10]): 704 | Fold change (NIH3T3 cells [2]; [11]): 3.58 | Median FITC / Median PE (NIH3T3 cells [2]; [12]): 1360 | Fold change (NIH3T3 cells [2]; [13]): 9.46 | Median FITC / Median PE (NIH3T3 cells [2]; [14]): 3594 | Fold change (NIH3T3 cells [2]; [15]): 17.49 | Median FITC / Median PE (NIH3T3 cells [2]; [16]): 6645 | Fold change (NIH3T3 cells [2]; [17]): 24.46 | Median FITC / Median PE (NIH3T3 cells [2]; [18]): 9295 | Fold change (NIH3T3 cells [2]; [19]): 28.68 | Median FITC / Median PE (NIH3T3 cells [2]; [20]): 10900 | Med (median fluorescence intensity) (NIH3T3 cells [2]; [21]): 531 | SR (stabilization ratio) (NIH3T3 cells [2]; [21]): 1 | Med (median fluorescence intensity) (NIH3T3 cells [2]; [22]): 711 | SR (stabilization ratio) (NIH3T3 cells [2]; [22]): 1.34 | Med (median fluorescence intensity) (NIH3T3 cells [2]; [23]): 661 | SR (stabilization ratio) (NIH3T3 cells [2]; [23]): 1.24 | Med (median fluorescence intensity) (NIH3T3 cells [2]; [24]): 750 | SR (stabilization ratio) (NIH3T3 cells [2]; [24]): 1.41 | Med (median fluorescence intensity) (NIH3T3 cells [2]; [25]): 1207 | SR (stabilization ratio) (NIH3T3 cells [2]; [25]): 2.27 | Med (median fluorescence intensity) (NIH3T3 cells [2]; [26]): 2544 | SR (stabilization ratio) (NIH3T3 cells [2]; [26]): 4.79 | Med (median fluorescence intensity) (NIH3T3 cells [2]; [27]): 5227 | SR (stabilization ratio) (NIH3T3 cells [2]; [27]): 9.84 | Med (median fluorescence intensity) (NIH3T3 cells [2]; [28]): 7171 | SR (stabilization ratio) (NIH3T3 cells [2]; [28]): 13.5 | Median PE (NIH3T3 cells [2]; NIH3T3, DMSO): 441 | SR (stabilization ratio) (NIH3T3 cells [2]; NIH3T3, DMSO (reference)): 1 | Median FITC / Median PE (NIH3T3 cells [2]; [29]): 380 | Med (median fluorescence intensity) (NIH3T3 cells [2]; [30]): 531 | SR (stabilization ratio) (NIH3T3 cells [2]; [30]): 1 | Med (median fluorescence intensity) (NIH3T3 cells [2]; [31]): 580 | SR (stabilization ratio) (NIH3T3 cells [2]; [31]): 1.09 | Med (median fluorescence intensity) (NIH3T3 cells [2]; [32]): 623 | SR (stabilization ratio) (NIH3T3 cells [2]; [32]): 1.17 | Med (median fluorescence intensity) (NIH3T3 cells [2]; [33]): 655 | SR (stabilization ratio) (NIH3T3 cells [2]; [33]): 1.23 | Med (median fluorescence intensity) (NIH3T3 cells [2]; [34]): 873 | SR (stabilization ratio) (NIH3T3 cells [2]; [34]): 1.64 | Med (median fluorescence intensity) (NIH3T3 cells [2]; [35]): 1572 | SR (stabilization ratio) (NIH3T3 cells [2]; [35]): 2.96 | Med (median fluorescence intensity) (NIH3T3 cells [2]; [36]): 3902 | SR (stabilization ratio) (NIH3T3 cells [2]; [36]): 7.35 | Med (median fluorescence intensity) (NIH3T3 cells [2]; [37]): 6245 | SR (stabilization ratio) (NIH3T3 cells [2]; [37]): 11.76 | stabilization with varying doses of Valdecoxib or Celecoxib (NIH3T3 cells [2]; 24 hours): dose dependent stabilization | GFP protein expression by immunoblot, Celecoxib or Valdecoxib (NIH3T3 cells [3]): stabilization of GFP with increasing ligand doses
